Test results published in PubChem BioAssay AID651672 (The Scripps Research Institute Molecular Screening Center, 2012).
The source made the active and inactive calls. The rule behind the calls is not given here.

Biological target: Perilipin-1 (Homo sapiens) (UniProt O60240)
Assay: inhibitors of ABHD5-PLIN1 binding, dose response, counter-screen for ABHD5-PLIN5 interaction inhibitor project, biochemical, luminescence (AID 651672);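 note: split Gaussia luciferase complementation between ABHD5 and PLIN1 fusion fragments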

Sequence of Perilipin-1 (Homo sapiens) (O60240 whole entry, looked up, the tested form may be a part): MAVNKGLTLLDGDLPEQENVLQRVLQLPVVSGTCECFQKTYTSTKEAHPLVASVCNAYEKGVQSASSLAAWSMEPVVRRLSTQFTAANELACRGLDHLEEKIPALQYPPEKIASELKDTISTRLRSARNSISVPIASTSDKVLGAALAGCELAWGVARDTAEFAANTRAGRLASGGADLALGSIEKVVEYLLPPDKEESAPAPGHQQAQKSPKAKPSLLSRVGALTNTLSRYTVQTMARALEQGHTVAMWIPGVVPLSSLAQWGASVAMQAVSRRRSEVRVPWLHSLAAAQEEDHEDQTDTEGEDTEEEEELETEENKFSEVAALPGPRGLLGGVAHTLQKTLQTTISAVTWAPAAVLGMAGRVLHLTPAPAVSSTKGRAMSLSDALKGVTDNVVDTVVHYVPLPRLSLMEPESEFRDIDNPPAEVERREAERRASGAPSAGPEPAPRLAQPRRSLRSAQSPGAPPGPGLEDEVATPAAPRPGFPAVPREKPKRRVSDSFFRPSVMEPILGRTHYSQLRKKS

Compound	IC50
CC(C)(C)NC(=O)C(c1ccccc1F)n1c(=O)c(-c2ccco2)nc2ccccc21 (centres undefined)	2.27 µM
O=C(/C=C/Sc1ccccc1)c1ccc(Cl)cc1	3.81 µM
CCCCCNC(=O)C(c1ccc(C#N)cc1)n1c(=O)c(-c2ccco2)nc2ccccc21 (centres undefined)	2.98 µM
Cc1ccc(C(=O)/C=C/c2cc(Br)cc(Br)c2O)o1	5.75 µM
COc1ccccc1/C=C/C(=O)c1ccccc1	6.05 µM
Cc1cccc(C)c1NC(=O)C(c1ccc(-c2ccccc2)cc1)n1c(=O)c(-c2ccco2)nc2ccccc21 (centres undefined)	1.48 µM
C#CCN(C[C@@H]1[C@@H](OC(=O)NCCCCCC)[C@@H](OC(=O)NCCCCCC)Cn2c(=O)ccc(=O)n21)S(=O)(=O)c1ccc(C)cc1	5.99 µM
COc1ccc(NC(=S)N(CCCN2CCCC2)Cc2cccn2Cc2ccc(Cl)cc2)cc1Cl	inactive
CSc1nnc(NC(=O)c2nc(S(=O)(=O)Cc3cccc(C)c3)ncc2Cl)s1	2.7 µM
CC1CN(Cc2c(O)ccc3c2oc(=O)c2ccccc23)CC(C)O1 (centres undefined)	2.92 µM
CC(=O)C1=C(c2cccc([N+](=O)[O-])c2)N(C(C)=O)n2c(C)nnc2S1	2.47 µM
COc1ccc(NC(=O)c2cc3ccccc3cc2O)cc1	inactive
CC1(C)C2CCC(CN=C(N)CSS(=O)(=O)O)C1C2 (centres undefined)	4.29 µM
Cc1cccc(NC(=O)CSc2nnc(-c3ccco3)c(-c3ccco3)n2)c1	1.92 µM
CC(=O)Oc1ccc(C23c4ccccc4C2(OC(C)=O)c2cc(OC(C)=O)ccc23)cc1 (centres undefined)	0.581 µM
Cc1nc2c(o1)CCc1ccccc1C2N1CCN(C)CC1 (centres undefined)	inactive
CCC(=O)Nc1cccc(C(=O)/C=C/c2ccccc2)c1	1.99 µM
CCOc1cc(N)c(Cl)cc1C(=O)NCC1CN(Cc2ccc(F)cc2)CCO1 (centres undefined)	1.97 µM
N#Cc1ccccc1OCc1cn(CC(=O)c2ccc(O)cc2)nn1	4.12 µM
O=C(COc1ccccc1Cl)Nc1ccc(N2CCCC2)cc1	> 39.9 µM (inactive)
CN(C)CCCN(C(=O)CCc1ccccc1)c1nc2ccc(Br)cc2s1	8.53 µM
CSc1nnc(NC(=O)c2nc(S(=O)(=O)Cc3ccc(C)cc3)ncc2Cl)s1	3.1 µM
CC(=O)Oc1c(Br)cc(N(C(C)=O)S(=O)(=O)c2ccccc2)c2ccccc12	8.8 µM

Compound	IC50
O=C(Nc1ccc(Cl)cc1)/C(=C/c1cccc(O)c1)c1nc2ccccc2s1	1.68 µM
C#CCN(C[C@@H]1[C@@H](OC(=O)Nc2cccs2)[C@@H](OC(=O)Nc2cccs2)Cn2c(=O)ccc(=O)n21)S(=O)(=O)c1ccc(C)cc1	2.33 µM
C=C[C@]1(C)C[C@@H](OC(=O)CSCCN(CC)CC)[C@]2(C)C(C)CC[C@]3(CCC(=O)[C@H]32)[C@@H](C)[C@@H]1O (some centres undefined)	inactive
C=C1C(=O)O[C@H]2C[C@H]1[C@@H](OC(C)=O)C/C(C)=C/CC/C(C)=C\CC[C@]2(C)O	1.87 µM
CCCc1nnc(NC(=O)c2nc(S(=O)(=O)Cc3cccc(C)c3)ncc2Cl)s1	2.83 µM
O=C(NCc1ccccc1)C(c1ccccc1F)n1c(=O)c(-c2ccco2)nc2ccccc21 (centres undefined)	2.31 µM
O=C(NCc1ccccc1)C(c1ccc(C(F)(F)F)cc1)n1c(=O)c(-c2ccco2)nc2ccccc21 (centres undefined)	1.59 µM
COCCNC(=O)/C(C#N)=C/c1cccc(/C=C(\C#N)C(=O)NCCOC)c1	0.804 µM
CC(=O)OCC1=C(C(=O)O)N2C(=O)C(NC(=O)CCn3nc(C(F)(F)F)c(Br)c3C3CC3)C2SC1 (centres undefined)	8.15 µM
Cc1ccc2nc3cc([N+](=O)[O-])cc([N+](=O)[O-])c3cc2c1	0.801 µM
CCN1CCN(Cc2ccc(NC(=O)c3ccc(C)c(/C=C/c4cnc(Nc5cc(N6CCNCC6)nc(C)n5)cn4)c3)cc2C(F)(F)F)CC1	3.42 µM
N#Cc1ccc(C(C(=O)Nc2ccc3c(c2)OCCO3)n2c(=O)c(-c3ccco3)nc3ccccc32)cc1 (centres undefined)	7.22 µM
O=C(NCc1ccccc1)C(c1ccccc1)n1c(=O)c(-c2ccco2)nc2ccccc21 (centres undefined)	2.5 µM
CN(C)CCCN(C(=O)CCc1ccccc1)c1nc2ccc(Cl)cc2s1	6.98 µM
O=C(/C(=C/O)N=Nc1ccc(Cl)cc1)c1ccncc1	7.4 µM
O=C(Nc1ccc2c(c1)OCCO2)C(c1ccccc1F)n1c(=O)c(-c2ccco2)nc2ccccc21 (centres undefined)	9.21 µM
O=C(Nc1ccc2c(c1)OCCO2)C(c1ccnc2ccccc12)n1c(=O)c(-c2ccco2)nc2ccccc21 (centres undefined)	inactive
CCc1nnc(NC(=O)c2nc(S(=O)(=O)Cc3cccc(C)c3)ncc2Cl)s1	3.29 µM
COc1ccc(/C=C/C(=O)c2cc(F)ccc2OC(=O)c2ccc(OC)c(OC)c2)cc1OC	2.44 µM
COc1ccc(C(C(=O)Nc2ccc3c(c2)OCCO3)n2c(=O)c(-c3ccco3)nc3ccccc32)cc1 (centres undefined)	5.43 µM
COc1ccc(NC(=O)C(c2ccc(OC)cc2)n2c(=O)c(-c3ccco3)nc3ccccc32)cc1 (centres undefined)	7.7 µM
C#CCOCCOCCOCCNc1nc(N2CCN(C(=O)CCCCCCCCCCNC(=O)[C@@H](CCSC)n3cc(CCO)nn3)CC2)nc(N2CCN(C(=O)CCCCCCCCCCNC(=O)[C@@H]([C@H](C)O)n3cc(C)nn3)CC2)n1	inactive
CCCc1nc(C)c2c(=O)[nH]c(-c3cc(S(=O)(=O)N4CCN(CC)CC4)ccc3OCC)nn12	2.45 µM

Compound	IC50
O=C(NC1CCCCC1)C(c1cccc2ccccc12)n1c(=O)c(-c2ccco2)nc2ccccc21 (centres undefined)	1.22 µM
CC(C)(C)NC(=O)C(c1ccccc1)n1c(=O)c(-c2ccco2)nc2ccccc21 (centres undefined)	2.04 µM
O=c1[nH]c(C2CCN(S(=O)(=O)c3ccc(F)cc3)CC2)nc2c1nnn2Cc1ccc2c(c1)OCCO2	inactive
O=C(NCc1ccccc1)C(c1cccc2ccccc12)n1c(=O)c(-c2ccco2)nc2ccccc21 (centres undefined)	2.06 µM
Cc1cccc(C)c1NC(=O)C(c1ccccc1)n1c(=O)c(-c2ccco2)nc2ccccc21 (centres undefined)	3.37 µM
CC(=O)Nc1ccc(S(=O)(=O)N2c3ccc(F)cc3CCC2C)cc1 (centres undefined)	inactive
COC(=O)c1cc(=O)n(Cc2ccco2)c(=Nc2ccc(F)cc2)s1	3.19 µM
CCOc1cc(/C=C2\CCC/C(=C\c3cc(Cl)c(O)c(OCC)c3)C2=O)cc(Cl)c1O	3.88 µM
N#Cc1ccc(C(C(=O)NCc2ccccc2)n2c(=O)c(-c3ccco3)nc3ccccc32)cc1 (centres undefined)	1.7 µM
Cc1cccc(C)c1NC(=O)C(c1ccc(C(F)(F)F)cc1)n1c(=O)c(-c2ccco2)nc2ccccc21 (centres undefined)	2.22 µM
CC(=O)Oc1c(Cl)cc(N(C(C)=O)S(=O)(=O)c2ccccc2)c2ccccc12	3.88 µM
FC(F)(F)c1cccc(NC(=S)N(CCCN2CCCC2)Cc2cccn2Cc2ccc(Cl)cc2)c1	inactive
O=C(CF)N(O)c1ccc(C=Cc2ccccc2)cc1	> 13.3 µM (inactive)
COc1cccc2sc(N(CCCN(C)C)C(=O)COc3ccc(Cl)cc3)nc12	inactive
O=S(=O)(NC1=NCCCCC1)c1ccc2sc(NS(=O)(=O)c3ccc4ccccc4c3)nc2c1	inactive
Cc1nc(-c2ccccc2)sc1C(=O)/C=C/c1ccccc1	2.77 µM
CCC1(C)N=C(c2ccc3c(c2)OCO3)CC(c2ccccc2O)N1 (centres undefined)	1.06 µM
Cc1ccc(C(=O)c2c(C)oc3c2C(=O)C(=O)c2ccccc2-3)cc1	5.4 µM
CCCCOC(=O)Nc1cc(C(=O)OC)ccc1C(=O)OC	6.03 µM
COc1cc(C)c2sc3ccccc3c(=O)c2c1NCCN(C)C	6.3 µM
Cc1cccc(C)c1NC(=O)C(c1ccncc1)n1c(=O)c(-c2ccco2)nc2ccccc21 (centres undefined)	7.15 µM
CCCCCNC(=O)C(C1CC1)n1c(=O)c(-c2ccco2)nc2ccccc21 (centres undefined)	6.58 µM
Cc1ccc(C(=O)c2coc3c2C(=O)C(=O)c2ccccc2-3)cc1	3.88 µM

Compound	IC50
Cc1nnc(NC(=O)c2nc(S(=O)(=O)Cc3ccccc3C)ncc2Cl)s1	3.92 µM
Cc1cc(C)c(NC(=O)C[N+](C)(C)CC(O)COc2cccc3ccccc23)c(C)c1 (centres undefined)	7.99 µM
CC(C)(C)NC(=O)C(c1ccnc2ccccc12)n1c(=O)c(-c2ccco2)nc2ccccc21 (centres undefined)	4.29 µM
CCC(C(=O)OCCN(CC)CC)c1ccccc1 (centres undefined)	2.53 µM
C#CCN(C[C@@H]1[C@@H](OC(=O)NCc2ccc(OC)c(OC)c2)[C@@H](OC(=O)NCc2ccc(OC)c(OC)c2)Cn2c(=O)ccc(=O)n21)S(=O)(=O)c1ccc(C)cc1	4.59 µM
CC(C)(C)NC(=O)C(c1ccncc1)n1c(=O)c(-c2ccco2)nc2ccccc21 (centres undefined)	2.42 µM
CCCCCNC(=O)C(c1ccc(OC)cc1)n1c(=O)c(-c2ccco2)nc2ccccc21 (centres undefined)	1.41 µM
CCOC(=O)c1c(NC(C)=O)sc2c1CCC(C=O)=C2Sc1ccccc1	3.11 µM
CCOC(=O)c1c(C)oc2c1c(CN1CCN(CCO)CC1)c(O)c1ccccc12	1.81 µM
COc1ccc(C(C(=O)NC(C)(C)C)n2c(=O)c(-c3ccco3)nc3ccccc32)cc1 (centres undefined)	1.82 µM
NC(=O)CCN1CCN(CCOC2Cc3cc(Cl)ccc3Sc3ccccc32)CC1 (centres undefined)	inactive
COc1ccc(NC(=O)C(c2ccccc2)n2c(=O)c(-c3ccco3)nc3ccccc32)cc1 (centres undefined)	8.47 µM
CCCCCNC(=O)C(c1cccc2ccccc12)n1c(=O)c(-c2ccco2)nc2ccccc21 (centres undefined)	2.01 µM
O=C(NC1CCCCC1)C(c1ccccc1F)n1c(=O)c(-c2ccco2)nc2ccccc21 (centres undefined)	1.9 µM
Oc1ccc2sc(-c3ccccc3O)c(-c3ccc(OCCN4CCCCC4)cc3)c2c1	7.15 µM
CN1C(=O)/C(=C/C=C/c2ccco2)C(=O)NC1=S	5.88 µM
Cc1ccc(CS(=O)(=O)c2ncc(Cl)c(C(=O)Nc3nnc(C(C)C)s3)n2)cc1	1.71 µM
Cc1ccc(/C=C/C(=O)c2cc(Br)ccc2OC(=O)c2ccco2)cc1	0.684 µM
CC(=O)Nc1ccc(OCc2cn(CC(=O)c3ccc(O)cc3)nn2)cc1	2.47 µM
O=C1NC(=O)N(c2ccccc2F)C(=O)/C1=C/c1ccc(Oc2ccc([N+](=O)[O-])cn2)cc1	2.73 µM
